A word on the GI50: it is the concentration that inhibits growth by half. For orientation: TGI means the concentration at which net growth stops. Low readings indicate greater sensitivity of the cells, high ones lower sensitivity of the cells.

Among the data in PubChem BioAssay (NCI) are GI50 and TGI values, retold here.

Each structure is given as a SMILES string.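 Growth conditions: 96-well plates. Treatment: test compound, 48 hours, 5 concentrations. Analysis: linear interpolation between bracketing concentrations; unreached endpoints set to highest concentration. GI50 marks 50% less growth. Definition used: TGI = concentration required for complete inhibition of growth.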

What all share (assay): DTP human tumour cell line panel, 48 h
Test [1] relates to ACHN renal.
Test [2] deals with CAKI-1 renal.
Test [3] deals with DU-145 prostate.
For test [4], the system named is HOP-62 NSCLC.
The test system of test [5] is K-562 leukemia.
Test [6] deals with M14 melanoma.
Test [7] deals with SK-MEL-2 melanoma.
In test [8] the test system is SN12C renal.
Test [9] deals with SNB-19 CNS.
For test [10], the system named is SNB-75 CNS.

Consider `CCOc1ccc(C(C[N+](=O)[O-])Sc2ccccc2N)cc1` (centres undefined), for which the GI50 was 11.1 µM in [1]; 12.9 µM in test [2]; 4.17 µM in test [3]; 18.3 µM in test [4]; 2.97 µM in test [5]; 6.6 µM in test [6]. The GI50 was 16.1 µM in test [7], 3.23 µM in test [8], 9.22 µM in [9] and 2.8 µM in [10]. In addition, the TGI came to 23.1 µM in [1]; 25.6 µM in test [2]; 15 µM in test [3]; 32.3 µM in test [4]; 11.9 µM in test [5]; 19.5 µM in test [6]. The TGI is 31.2 µM in test [7], 13.4 µM in test [8], 21.2 µM in [9] and 17.4 µM in [10].

As for `Cc1nc2sc3c(N)ncnc3c2c(C)c1C`, the GI50 in [1], in test [2], in [3], in [4], in [5] and in test [6] was above 25 µM in each case. Moreover, the GI50 in test [7], in test [8], in [9] and in [10] was above 25 µM each time. Further, the TGI in [1], in [2], in [3], in test [4], in test [5] and in test [6] was above 25 µM throughout. The TGI in test [7], in [8], in [9] and in test [10] was above 25 µM each time.

As to `Cn1cc(C2=C(c3cn(CCCN)c4ccccc34)C(=O)NC2=O)c2ccccc21`, the GI50 in [1] was 5.53 µM; in test [2], 4.94 µM; in [3] it was 6.71 µM; in [4], 6.09 µM; in test [5], 4.29 µM; in test [6] it was 4.38 µM. Moreover, the GI50 in test [7] is 3.04 µM; in test [8] it was 4.67 µM; in test [9], 7.89 µM; in [10] it was 0.998 µM. Further, the TGI in [1] is 19.7 µM; in test [2], above 15.9 µM; in test [3] it was 18.7 µM; in [4] it was 17 µM; in test [5] it was 14.6 µM; in [6], 8.6 µM. Also, the TGI in [7] amounted to 7.07 µM; in test [8], 18.6 µM; in test [9], 24.9 µM; in test [10], 5.35 µM.

For the compound `OC1CCCC2CCC[N-]C12.OC1CCCC2CCC[N-]C12.[O]=[V][OH]` (centres undefined), the GI50 in test [1] is 8.21 µM; in test [2], 21.9 µM; in [3], 19.7 µM; in [4], 7.15 µM; in [5] it was 1.93 µM; in [6], 2.92 µM. Further, the GI50 in [7] is 9.96 µM; in test [8] it was 5.91 µM; in test [9], 53.1 µM; in test [10], 32.8 µM. Moreover, the TGI in test [1] was above 100 µM; in [2], 85.3 µM; in test [3], above 100 µM; in [4], above 100 µM; in test [5], 14.4 µM; in test [6] it was 14.9 µM. Further, the TGI in test [7] was 45 µM; in test [8], above 100 µM; in [9], above 100 µM; in [10], above 100 µM.

In the case of `CCC(=O)N1C/C(=C/c2ccc(Br)cc2)C(=O)/C(=C/c2ccc(Br)cc2)C1`, the GI50 in test [1] was 0.694 µM; in [2] it was 1.21 µM; in test [3] it was 1.02 µM; in test [4], 0.259 µM; in test [5] it was 0.183 µM; in test [6], 0.885 µM. Further, the GI50 was 1.93 µM in test [7], 0.424 µM in [8], 0.995 µM in [9] and 2.34 µM in test [10]. Also, the TGI in [1] is 1.87 µM; in test [3], 3.22 µM; in test [4] it was 0.829 µM; in test [5] it was 6.1 µM; in [6], 2.7 µM; in test [7] it was 4 µM. In addition, the TGI in test [8] amounted to 1.58 µM; in test [9], 2.9 µM; in test [10], 9.71 µM.
